Numbers after ± are expanded uncertainties.
Test: xn = mol fraction of the nth substance listed
Conditions: 100 kPa, Liquid; for mass density: Vibrating tube method; for viscosity: Capillary tube (Ostwald / Ubbelohde) method

O=C1CCCO1 [γ-butyrolactone] + CN1CCCC1=O
Conditions	mass density [kg/m3]	viscosity [mPa·s]
293.15 K, x2 = 0	1129.2 ± 1.6	–
293.15 K, x2 = 0.1011	1117.01 ± 1.7	–
293.15 K, x2 = 0.1484	1111.57 ± 1.6	–
293.15 K, x2 = 0.2506	1100.29 ± 1.6	–
293.15 K, x2 = 0.3027	1094.76 ± 1.6	–
293.15 K, x2 = 0.4002	1084.79 ± 1.6	–
293.15 K, x2 = 0.4953	1075.51 ± 1.6	–
293.15 K, x2 = 0.5983	1065.98 ± 1.6	–
293.15 K, x2 = 0.6977	1057.25 ± 1.6	–
293.15 K, x2 = 0.8022	1048.51 ± 1.6	–
293.15 K, x2 = 0.851	1044.56 ± 1.6	–
293.15 K, x2 = 0.9418	1037.29 ± 1.6	–
298.15 K, x2 = 0	1124.26 ± 1.6	1.73 ± 0.04
298.15 K, x2 = 0.1002	–	1.719 ± 0.037
298.15 K, x2 = 0.1011	1112.14 ± 1.7	–
298.15 K, x2 = 0.1484	1106.72 ± 1.6	–
298.15 K, x2 = 0.2002	–	1.71 ± 0.036
298.15 K, x2 = 0.2506	1095.51 ± 1.6	–
298.15 K, x2 = 0.3027	1090 ± 1.6	–
298.15 K, x2 = 0.3078	–	1.701 ± 0.036
298.15 K, x2 = 0.3999	–	1.694 ± 0.036
298.15 K, x2 = 0.4002	1080.08 ± 1.6	–
298.15 K, x2 = 0.4953	1070.84 ± 1.6	–
298.15 K, x2 = 0.4998	–	1.689 ± 0.036
298.15 K, x2 = 0.5983	1061.35 ± 1.6	–
298.15 K, x2 = 0.6003	–	1.685 ± 0.036
298.15 K, x2 = 0.6977	1052.68 ± 1.6	–
298.15 K, x2 = 0.7002	–	1.682 ± 0.036
298.15 K, x2 = 0.8011	–	1.679 ± 0.036
298.15 K, x2 = 0.8022	1043.99 ± 1.6	–
298.15 K, x2 = 0.851	1040.04 ± 1.6	–
298.15 K, x2 = 0.8998	–	1.678 ± 0.036
298.15 K, x2 = 0.9418	1032.8 ± 1.6	–
303.15 K, x2 = 0	1119.33 ± 1.6	1.63 ± 0.04
303.15 K, x2 = 0.1002	–	1.614 ± 0.034
303.15 K, x2 = 0.1011	1107.27 ± 1.6	–
303.15 K, x2 = 0.1484	1101.88 ± 1.6	–
303.15 K, x2 = 0.2002	–	1.601 ± 0.034
303.15 K, x2 = 0.2506	1090.7 ± 1.6	–
303.15 K, x2 = 0.3027	1085.22 ± 1.6	–
303.15 K, x2 = 0.3078	–	1.587 ± 0.034
303.15 K, x2 = 0.3999	–	1.577 ± 0.034
303.15 K, x2 = 0.4002	1075.32 ± 1.6	–
303.15 K, x2 = 0.4953	1066.12 ± 1.6	–
303.15 K, x2 = 0.4998	–	1.568 ± 0.033
303.15 K, x2 = 0.5983	1056.67 ± 1.6	–
303.15 K, x2 = 0.6003	–	1.559 ± 0.033
303.15 K, x2 = 0.6977	1048.03 ± 1.6	–
303.15 K, x2 = 0.7002	–	1.552 ± 0.033
303.15 K, x2 = 0.8011	–	1.546 ± 0.033
303.15 K, x2 = 0.8022	1039.38 ± 1.6	–
303.15 K, x2 = 0.851	1035.46 ± 1.6	–
303.15 K, x2 = 0.8998	–	1.541 ± 0.033
303.15 K, x2 = 0.9418	1028.25 ± 1.6	–
308.15 K, x2 = 0	1114.31 ± 1.6	1.52 ± 0.03
308.15 K, x2 = 0.1002	–	1.504 ± 0.032
308.15 K, x2 = 0.1011	1102.38 ± 1.6	–
308.15 K, x2 = 0.1484	1097.05 ± 1.6	–
308.15 K, x2 = 0.2002	–	1.49 ± 0.032
308.15 K, x2 = 0.2506	1085.98 ± 1.6	–
308.15 K, x2 = 0.3027	1080.55 ± 1.6	–
308.15 K, x2 = 0.3078	–	1.477 ± 0.031
308.15 K, x2 = 0.3999	–	1.468 ± 0.031
308.15 K, x2 = 0.4002	1070.75 ± 1.6	–
308.15 K, x2 = 0.4953	1061.64 ± 1.6	–
308.15 K, x2 = 0.4998	–	1.458 ± 0.031
308.15 K, x2 = 0.5983	1052.28 ± 1.6	–
308.15 K, x2 = 0.6003	–	1.45 ± 0.031
308.15 K, x2 = 0.6977	1043.71 ± 1.6	–
308.15 K, x2 = 0.7002	–	1.443 ± 0.031
308.15 K, x2 = 0.8011	–	1.437 ± 0.031
308.15 K, x2 = 0.8022	1035.14 ± 1.6	–
308.15 K, x2 = 0.851	1031.26 ± 1.6	–
308.15 K, x2 = 0.8998	–	1.433 ± 0.031
308.15 K, x2 = 0.9418	1024.11 ± 1.6	–
313.15 K, x2 = 0	1109.23 ± 1.6	1.42 ± 0.03
313.15 K, x2 = 0.1002	–	1.404 ± 0.03
313.15 K, x2 = 0.1011	1097.36 ± 1.6	–
313.15 K, x2 = 0.1484	1092.04 ± 1.6	–
313.15 K, x2 = 0.2002	–	1.391 ± 0.03
313.15 K, x2 = 0.2506	1081.02 ± 1.6	–
313.15 K, x2 = 0.3027	1075.61 ± 1.6	–
313.15 K, x2 = 0.3078	–	1.379 ± 0.029
313.15 K, x2 = 0.3999	–	1.37 ± 0.029
313.15 K, x2 = 0.4002	1065.84 ± 1.6	–
313.15 K, x2 = 0.4953	1056.76 ± 1.6	–
313.15 K, x2 = 0.4998	–	1.361 ± 0.029
313.15 K, x2 = 0.5983	1047.44 ± 1.6	–
313.15 K, x2 = 0.6003	–	1.354 ± 0.029
313.15 K, x2 = 0.6977	1038.91 ± 1.6	–
313.15 K, x2 = 0.7002	–	1.348 ± 0.029
313.15 K, x2 = 0.8011	–	1.344 ± 0.029
313.15 K, x2 = 0.8022	1030.36 ± 1.6	–
313.15 K, x2 = 0.851	1026.5 ± 1.6	–
313.15 K, x2 = 0.8998	–	1.34 ± 0.029
313.15 K, x2 = 0.9418	1019.36 ± 1.6	–
318.15 K, x2 = 0	1104.1 ± 1.6	1.35 ± 0.03
318.15 K, x2 = 0.1002	–	1.331 ± 0.028
318.15 K, x2 = 0.1011	1092.31 ± 1.6	–
318.15 K, x2 = 0.1484	1087.03 ± 1.6	–
318.15 K, x2 = 0.2002	–	1.316 ± 0.028
318.15 K, x2 = 0.2506	1076.08 ± 1.6	–
318.15 K, x2 = 0.3027	1070.71 ± 1.6	–
318.15 K, x2 = 0.3078	–	1.302 ± 0.028
318.15 K, x2 = 0.3999	–	1.291 ± 0.028
318.15 K, x2 = 0.4002	1061.01 ± 1.6	–
318.15 K, x2 = 0.4953	1051.99 ± 1.6	–
318.15 K, x2 = 0.4998	–	1.28 ± 0.027
318.15 K, x2 = 0.5983	1042.73 ± 1.6	–
318.15 K, x2 = 0.6003	–	1.271 ± 0.027
318.15 K, x2 = 0.6977	1034.27 ± 1.6	–
318.15 K, x2 = 0.7002	–	1.263 ± 0.027
318.15 K, x2 = 0.8011	–	1.256 ± 0.027
318.15 K, x2 = 0.8022	1025.76 ± 1.6	–
318.15 K, x2 = 0.851	1021.91 ± 1.6	–
318.15 K, x2 = 0.8998	–	1.251 ± 0.027
318.15 K, x2 = 0.9418	1014.8 ± 1.6	–
323.15 K, x2 = 0	1098.88 ± 1.6	1.3 ± 0.03
323.15 K, x2 = 0.1002	–	1.278 ± 0.027
323.15 K, x2 = 0.1011	1087.72 ± 1.6	–
323.15 K, x2 = 0.1484	1082 ± 1.6	–
323.15 K, x2 = 0.2002	–	1.261 ± 0.027
323.15 K, x2 = 0.2506	1071.16 ± 1.6	–
323.15 K, x2 = 0.3027	1065.83 ± 1.6	–
323.15 K, x2 = 0.3078	–	1.245 ± 0.027
323.15 K, x2 = 0.3999	–	1.232 ± 0.026
323.15 K, x2 = 0.4002	1056.23 ± 1.6	–
323.15 K, x2 = 0.4953	1047.31 ± 1.6	–
323.15 K, x2 = 0.4998	–	1.219 ± 0.026
323.15 K, x2 = 0.5983	1038.15 ± 1.6	–
323.15 K, x2 = 0.6003	–	1.208 ± 0.026
323.15 K, x2 = 0.6977	1029.76 ± 1.6	–
323.15 K, x2 = 0.7002	–	1.198 ± 0.026
323.15 K, x2 = 0.8011	–	1.189 ± 0.025
323.15 K, x2 = 0.8022	1021.34 ± 1.6	–
323.15 K, x2 = 0.851	1017.51 ± 1.6	–
323.15 K, x2 = 0.8998	–	1.182 ± 0.025
323.15 K, x2 = 0.9418	1010.46 ± 1.6	–

— the NIST ThermoML archive (doi:10.1016/j.jct.2015.08.013)
